Laboratory results from patent publication US9603836B2, “Pyrrolidine-2, 5-dione derivatives, pharmaceutical compositions and methods for use as IDO1 inhibitors” (ITEOS THERAPEUTICS, priority 2014, dated 2017).

Experiments:
Kynurenine [1] = test: Inhibition of tryptophan degradation in CT26 tumor tissue; format: in vivo, Balb/c mice; settings: 200 mg/kg oral twice per day, 2 h after administration
Text: (§1) In the present study, CT26 syngeneic tumors were implanted subcutaneously in Balb-c mice. More particularly, Five hundred thousand (500,000) CT26 colon carcinoma cancer cells [CT26.WT, available from the ATCC® CRL-2628™] were implanted subcutaneously in 7 weeks old Balb/c mice (day 0). Animals were randomized based on tumor size when tumor average reached 150 mm^3 (day 11) into different treatment cohorts (n=10/group). […] The tumor was removed, weighted and frozen on dry ice. Tumors were analyzed by LC/MS-MS for Kynurenine concentration.

PancO2 tumors = test: In vivo efficacy in PancO2 pancreatic cancer syngeneic model; design: species or system C57/B16 mice; settings: PancO2, 200 mg/kg BID oral
Procedure: In vivo efficacy studies of the Compounds of the present invention were performed on PancO2 syngeneic tumor model of C57/B16 mice implanted subcutaneously. Five millions PancO2 pancreas cancer cells were implanted subcutaneously to 7 weeks old C57/B16 mice (day 0). Animals were randomized based on tumor size when tumor average reached 60 mm^3 (between day 10 and 12) into different treatment cohorts. The Compound was administered orally twice per day (approximately at 9 am and 5 pm) starting the day of randomization. The Compound was suspended into Methocel vehicle and sonicated before oral administration to animals using gavage needles. Treatment was administered daily until the end of the study. All experimental animals were monitored for body weight changes weekly. Tumor volume was measured weekly using a caliper device and calculated with the following formula: Tumor volume=0.5×(length×width^2). Studies were terminated before tumor volumes reached 2000 mm. TGI (% tumor growth inhibition) was determined as
Treatment was administered daily until the end of the study. Tumor volume was measured weekly using a caliper device and calculated with the following formula: Tumor volume=0.5×(length×width^2). Mice were considered as dead when tumor size reached 400 mm^3. […] SEM refers to standard error of measurement.

Kynurenine [2] = test: Inhibition of tryptophan degradation in 4T1 tumor tissue; format: in vivo, Balb/c mice; settings: 200 mg/kg oral twice per day, 4 h after administration
Procedure: Compounds of this invention are capable of lowering kynurenine concentration within mouse tumors, for example 4T1 syngeneic tumors of Balb/c mice implanted orthotopically in the mammary gland. One hundred thousand 4T1 breast cancer cells were implanted orthotopically within the mammary gland of 7 weeks old Balb/c mice (day 0). Animals were randomized based on tumor size when tumor average reached 60 mm^3 (day 6) into different treatment cohorts (n=10/group). Animals were treated with Methocel vehicle from day 6 to 26 until tumors reached a size comprised between 1500 and 2000 mm^3. […] The tumor was removed, weighted and frozen on dry ice. Tumors were analyzed by LC/MS-MS for Kynurenine concentration.

Kynurenine [3] = test: In-vivo inhibition of blood kynurenine levels in healthy mice; design: species or system mouse; settings: two hours
Procedure: The compounds of the present invention reduce the amount of Kynurenine in healthy mouse blood.
Briefly, mice were treated with either a suspension of one of the compounds of the present invention in 0.5% hydroxypropyl methylcellulose (HPMC) K4M/0.25% Tween 20 at different doses, or with a vehicle control (0.5% HPMC K4M/0.25% Tween 20), by the oral route by gavage (dosing volume 5 mL/kg, 10 mice per group). After two hours, blood was harvested, plasma was prepared and the amount of Kynurenine present was determined by LC-MS-MS (HPLC column Unison UK-Phenyl, 75×4.6, 3 μm, flow rate 0.8 mL/min, 4 minutes gradient from water+0.2% acetic acid to methanol+0.1% formic acid, retention time 2.7 min; API4000™ MS-MS system from AB Sciex, ESI+ mode, parent ion 209.2, daughter ion 94.1).

4T1 tumors = test: In vivo efficacy in 4T1 breast cancer syngeneic model; design: species or system Balb/c mice; settings: 4T1, 100 mg/kg BID oral
Procedure: In vivo efficacy studies for Compounds of the present invention were performed on 4T1 syngeneic tumor model of Balb/c mice implanted orthotopically in the mammary gland. One hundred thousand 4T1 breast cancer cells (ATCC® CRL-2539™)] were implanted orthotopically within the mammary gland of 7 weeks old Balb/c mice (day 0). Animals were randomized based on tumor size when tumor average reached 60 mm^3 (between day 7 and 11) into different treatment cohorts. The Compound of the present invention was administered orally twice per day (approximately at 9 am and 5 pm) starting the day of randomization. The Compounds were suspended into Methocel™ cellulose ether vehicle and sonicated before oral administration to animals using gavage needles. Treatment was administered daily until the end of the study. All experimental animals were monitored for body weight changes twice weekly. Tumor volume was measured twice a week by a caliper device and calculated with the following formula: Tumor volume=0.5×(length×width^2). Studies were terminated before tumor volumes reached 2000 mm. TGI (% tumor growth inhibition) was determined as […]

CT26 tumors = test: Tumor growth inhibition in CT26 colon syngeneic mouse tumor model; format: in vivo, Balb/c mice
Text: as §1
In a separate study, anti-tumor efficacy of IDO-1 inhibition was tested in the colon syngeneic mouse tumor model CT26 with a range of different treatment regimens. The model was essentially as described above, except that 1×10^6 cells in phosphate buffered saline (PBS) were implanted subcutaneously in the flank of 8 week old Balb/c females on day 0 (10 in each group). Mice were randomized into treatment groups (100 mg/kg BID, 200 mg/kg BID or 600 mg/kg BID) based on tumor size on day 9 when treatment started. The results are shown the following table and in FIG. 7.

Q: `O=C1CC(c2c[nH]c3ccc(F)cc23)C(=O)N1` (racemic) [Compound 1, 3-(5-fluoro-1H-indol-3-yl)pyrrolidine-2,5-dione] was tested. Which “Kynurenine concentration (ng/g tumor) Average ± SEM” value (Kynurenine [1]) did it give?
A: 876 ± 68 ng/g tumor

Q: And the “reduction of Kynurenine concentration” value (Kynurenine [1])?
A: 59%

Q: What about the “Mean tumor volume on day 42” value (PancO2 tumors) of the same molecule?
A: 457.0 mm^3

Q: What about the “TGI (Tumor growth inhibition)” value (PancO2 tumors; day 42) of the same molecule?
A: 26.2%

Q: What about the “Kynurenine concentration (ng/g tumor) Average ± SEM” value (Kynurenine [2]) of the same molecule?
A: 417.2 ± 55.7 ng/g tumor

Q: And the “reduction of Kynurenine concentration” value (Kynurenine [2])?
A: 47%

Q: And the “Kynurenine concentration in plasma (average ± standard error of the mean)” value (Kynurenine [3]; 100 mg/kg oral)?
A: 111.1 ± 27.0 ng/mL

Q: And the “inhibition of circulating Kynurenine” value (Kynurenine [3]; 100 mg/kg oral)?
A: 41%

Q: And the “Kynurenine concentration in plasma (average ± standard error of the mean)” value (Kynurenine [3]; 200 mg/kg oral)?
A: 77.7 ± 9.2 ng/mL

Q: And the “inhibition of circulating Kynurenine” value (Kynurenine [3]; 200 mg/kg oral)?
A: 59%

Q: And the “Mean tumor volume on day 25” value (4T1 tumors)?
A: 443.7 mm^3

Q: And the “TGI (Tumor growth inhibition)” value (4T1 tumors; day 25)?
A: 43.4%

Q: What about the “% TGI (D15)” value (CT26 tumors; CT26, 100 mg/kg BID) of the same molecule?
A: 29%

Q: What about the “% TGI (D17)” value (CT26 tumors; CT26, 100 mg/kg BID) of the same molecule?
A: 33%

Q: And the “% TGI (D20)” value (CT26 tumors; CT26, 100 mg/kg BID)?
A: 20%

Q: What about the “% TGI (D15)” value (CT26 tumors; CT26, 200 mg/kg BID) of the same molecule?
A: 38%

Q: And the “% TGI (D17)” value (CT26 tumors; CT26, 200 mg/kg BID)?
A: 41%

Q: And the “% TGI (D20)” value (CT26 tumors; CT26, 200 mg/kg BID)?
A: 34%

Q: What about the “% TGI (D15)” value (CT26 tumors; CT26, 600 mg/kg BID) of the same molecule?
A: 36%

Q: What about the “% TGI (D17)” value (CT26 tumors; CT26, 600 mg/kg BID) of the same molecule?
A: 51%

Q: What about the “% TGI (D20)” value (CT26 tumors; CT26, 600 mg/kg BID) of the same molecule?
A: 38%
